Consider one molecule from US20140128606A1, “ANTIPRURITIC AGENT” (Toray Industries, Inc., priority 2011, published 2014).

Where a name gives a salt, the structure may show the parent alone.

For assay [1], the system named is substance P-induced scratching behavior. The assay is described as follows: Inhibitory effect on substance P-induced scratching behavior in mice (MicroAct automatic detection). It counts as in vivo, mouse. As to conditions: substance P 250 nmol/site; for Number of scratching behavior (means ± standard error): i.p., counted for 15 minutes. The text has this:
Substance P-induced scratching behavior in mice which is an intractable pruritus model was induced by the method described in a known document (Togashi et al., European Journal of Pharmacology, 2002, Vol. 435, p. 259 and the like). Further, evaluation of the scratching behavior was objectively carried out by automatic detection using MicroAct (NeuroScience, Inc.) based on the method described in a known document (Hashimoto et al., Allergology International, 2004, Vol. 53, p. 349).
More particularly, at least five days before the evaluation of drug effect, neodymium magnets (diameter: 1 mm, length: 3 mm) coated with Parafilm were subcutaneously inserted into the insteps of both hind limbs of 5 to 7 week-old male ICR mouse (Japan SLC, Inc.) under isoflurane anesthesia. One or two days before the day of the evaluation of drug effect, the hair of the rostral part of the back of the mouse was shaved with a hair clipper under isoflurane anesthesia. At least one hour before the start of the measurement of the number of scratching behavior, each mouse (6 to 8 weeks old) was individually placed in a chamber for measurement (diameter: 11 cm, height: 18 cm) for acclimation. After the acclimation, substance P (5 mmol/L) or phosphate-buffered saline (hereinafter referred to as PBS) as a solvent thereof was intradermally administered (0.05 mL/site) into the rostral part of the back, and the measurement of the number of scratching behavior was started immediately after the administration. The number of scratching behavior was recorded by amplifying electric current induced by the movement of the magnets inserted in the hind limbs in a round coil surrounding the chamber for measurement. The measurement was carried out under unattended environment, and the evaluation of the drug effect was carried out by using the number of scratching behavior occurred for 15 minutes after the start of the measurement as an index.
A test compound or a solvent thereof was administered in an amount of 10 mL/kg 30 to 60 minutes before the start of the measurement of the number of scratching behavior. Varenicline tartrate (Tocris Bioscience) was dissolved in PBS and intraperitoneally administered in a dose of 1, 3 or 10 mg/kg 60 minutes before the start of the measurement of the number of scratching behavior. N-(1-azabicyclo[2.2.2]oct-3(R)-yl)-4-chlorobenzamide hydrochloride (PNU-282987) hydrate (Sigma-Aldrich) was dissolved in PBS and intraperitoneally administered in a dose of 0.3 or 1 mg/kg 45 minutes before the start of the measurement of the number of scratching behavior. The compound of Reference Example 1 was dissolved in PBS and intraperitoneally administered in a dose of 0.1 or 0.3 mg/kg 30 minutes before the start of the measurement of the number of scratching behavior. The compound of Reference Example 2 was dissolved in PBS and intraperitoneally administered in a dose of 1, 3, or 10 mg/kg 45 minutes before the start of the measurement of the number of scratching behavior. The compound of Reference Example 3 was dissolved in distilled water and orally administered in a dose of 1, 3, or 10 mg/kg 30 minutes before the start of the measurement of the number of scratching behavior. The compound of Reference Example 4 was dissolved in PBS and intraperitoneally administered in a dose of 1, 3, or 10 mg/kg 45 minutes before the start of the measurement of the number of scratching behavior. The compound of Reference Example 5 was dissolved in PBS and intraperitoneally administered in a dose of 1, 3, or 10 mg/kg 30 minutes before the start of the measurement of the number of scratching behavior. The compound of Reference Example 6 was dissolved in PBS and intraperitoneally administered in a dose of 1, 3, or 10 mg/kg, 30 minutes before the start of the measurement of the number of scratching behavior. […]

The test system is the same in assay [2]. The assay is described as follows: Effect of nicotinic acetylcholine receptor antagonist (mecamylamine hydrochloride) on inhibition of substance P-induced scratching behavior by varenicline. It counts as in vivo, mouse. As to conditions: varenicline tartrate 3 mg/kg + mecamylamine hydrochloride 3 mg/kg, i.p., 60 minutes before; substance P 250 nmol/site. As for the experimental part: The induction and measurement of the number of substance P-induced scratching behavior were carried out by the same method as described in Example 1.
Varenicline tartrate (0.3 mg/mL, Tocris Bioscience), mecamylamine hydrochloride (0.3 mg/mL, Tocris Bioscience), a mixed solution of varenicline tartrate and mecamylamine hydrochloride (both 0.3 mg/mL), or PBS which was a solvent thereof, was intraperitoneally administered in an amount of 10 mL/kg 60 minutes before the start of the measurement of the number of scratching behavior.
With regard to statistical processing, Student's t-test was performed when variances were homogeneity by F-test, and Aspin-Welch test was performed when variances were heterogeneity. A level of significance was set to 5% (two-tailed).
The vertical axis indicates the number of scratching behavior occurred for 15 minutes (mean±standard error, n=5 to 8). […]

For `c1cnc2cc3c(cc2n1)C1CNCC3C1` [Varenicline tartrate, 7,8,9,10-tetrahydro-6H-6,10-methanopyrazino[2,3-h][3]benzazepine, reference compound], the inhibition at 1 mg/kg in assay [1] (Mus musculus, ip, 1 mg/kg, read-out: Inhibition rate) was 15%. Further, the inhibition at 3 mg/kg in assay [1] (Mus musculus, ip, 3 mg/kg, read-out: Inhibition rate) was determined as 64%. The inhibition at 10 mg/kg in assay [1] (Mus musculus, ip, 10 mg/kg, read-out: Inhibition rate) is 101%. In addition, the “Number of scratching behavior (means ± standard error)” value in assay [1] (1 mg/kg) was found to be 103 ± 19; in assay [1] (3 mg/kg), 54 ± 7; in assay [1] (10 mg/kg), 17 ± 3. Besides, the “Effect of inhibiting the substance P-induced scratching behavior when used in combination with mecamylamine hydrochloride” value in assay [2] is on record as “completely disappeared”.

What is called inhibition is the drop in the measured response relative to a control, in per cent.
